Results reported in patent US9221834B2 (Merck Sharp & Dohme Corp., priority 2010, dated 2015).

What was measured:
[1] = molecular target: T1, endogenous CETP from serum (Homo sapiens, UniProt P11597); test: RTA assay using endogenous CETP from serum (95% RTA); assay type: biochemical; conditions: RTA assay in 95% human serum, labeled with an asterisk
T1 construct: For the transfer assay using endogenous CETP from serum (95% RTA); from tissue; host or cells: human serum
T1 sequence (P11597 18-493): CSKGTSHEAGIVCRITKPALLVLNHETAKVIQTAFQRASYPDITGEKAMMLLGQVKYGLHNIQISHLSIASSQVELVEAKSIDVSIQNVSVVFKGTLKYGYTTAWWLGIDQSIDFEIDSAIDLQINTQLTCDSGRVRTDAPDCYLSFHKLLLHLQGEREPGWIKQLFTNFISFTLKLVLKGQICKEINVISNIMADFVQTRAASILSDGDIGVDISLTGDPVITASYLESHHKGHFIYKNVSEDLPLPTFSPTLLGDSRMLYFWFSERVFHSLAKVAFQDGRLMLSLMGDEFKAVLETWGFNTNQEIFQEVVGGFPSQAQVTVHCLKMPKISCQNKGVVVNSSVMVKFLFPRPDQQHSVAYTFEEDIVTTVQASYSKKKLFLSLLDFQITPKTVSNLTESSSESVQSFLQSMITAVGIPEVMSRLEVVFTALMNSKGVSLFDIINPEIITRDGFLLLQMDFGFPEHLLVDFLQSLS
Method: In Vitro Radioactive Assays of CETP-Catalyzed CE and TG Transfer (RTA Assay)
Reagents and sources are: [3H] cholesteryl oleate (GE #TRK.886), [3H] Triolein (Perkin-Elmer NET-431), Butylated hydroxyl toluene (Aldrich, #D4740-4), DOPC (Sigma, #P6354), Sodium Bromide (Fisher scientific #5255-500), PEG 8000 (Fisher, #BP233-1), and human HDL (Intracel Corp #RP-036).
An in vitro assay for determining IC50's to identify compounds that inhibit CETP transfer activity is performed based on a modification of a published method (Morton and Zilversmit, (1981) A plasma inhibitor of triglyceride and cholesteryl ester transfer activities, J. Biol. Chem. 256(23), 11992-11995). The ability of inhibitors to alter CETP activity is performed using two different assays: one using recombinant CETP and one using an edogenous plasma source of CETP. Both assays measure the transfer of [3H] cholesteryl oleate or [3H]triolein from exogenous LDL to HDL.
Radiolabeled donor particles are generated by first combining 100 μl of 200 μM butylated hydroxyl toluene in CHCl3, 216 μL of 21.57 mM DOPC in EtOH, and either 500 μCi [3H]-triolein (Perkin Elmer #NET-431) or 500 μCi [3H]-cholesteryl oleate (GE #TRK886) in a glass tube. Reagents are mixed, dried under nitrogen, and then resuspended in 2 mL of 50 mM Tris, 27 μM EDTA at pH 7.4. After a brief vortex, the solution is sonicated until clear and mixed with 20 mL of fresh human serum. The mixture is incubated overnight at 37° C. The [3H] labeled LDL substrate is separated at 1.063 g/ml density by sequential ultracentrifugal flotation in NaBr according to the method by (Havel, Eder et al. 1955; Chapman, Goldstein et al. 1981). Once isolated the particles are dialyzed 3× in CETP buffer (50 mM Tris, pH 7.4, 100 mM NaCl, 1 mM EDTA). Human HDL is purchased from Intracel and used as the acceptor particles.
Transfer assays are performed in a 96-well v-bottom polypropylene plate. […] After mixing, plates are counted by liquid scintillation. […]

CETP = molecular target: T2, CETP (Homo sapiens, UniProt P11597); test: Scintillation Proximity Assay (SPA) for CETP Activity; assay type: biochemical
T2 construct: made in house
T2 sequence (P11597 18-493): T1 sequence (P11597 18-493)
Method: Protocol: Scintillation Proximity Assay (SPA) for CETP Activity
First low density lipoprotein (LDL) (Meridian) was biotinylated by incubating LDL with biotin for 1 hour on ice, after which it was dialyzed to remove free biotin. Then compounds at varying concentrations were incubated with 15 nM CETP (reagent production group, In Vitro Pharmacology, MRL Rahway) and 50 ug/ml of the biotinylated LDL in 50 mM HEPES, 150 mM NaCl, pH 7.4, for 1 hour at 37° C. The reaction was started by adding ^3H-cholesterol ester high density lipoprotein (HDL) (American Radiochemicals Corp) at a concentration of ˜0.6 nM. The reaction proceeded for 2 hours at 37° C., after which time it was quenched by the addition of 12% acetic acid. PVT streptavadin-coated scintillation proximity beads, which had been brought to room temperature, were then added at a concentration of 4 mg/ml. The assay was then mixed and counted after one half hour in a Microbeta plate reader.

[2] = torcetrapib and atorvastatin concomitantly compared with atorvastatin alone; cited from earlier work

SMILES: COC(=O)c1ccc(-c2cc(-c3cnc(N4CCC4)nc3CN3C(=O)O[C@H](c4cc(C(F)(F)F)cc(C(F)(F)F)c4)[C@@H]3C)c(F)cc2F)c(C)c1 [Example 142]
- IC50 [1]: 145 nM

SMILES: Cc1cc(C(=O)O)ccc1-c1cc(-c2cnc(N3CCC3)nc2CN2C(=O)O[C@H](c3cc(C(F)(F)F)cc(C(F)(F)F)c3)[C@@H]2C)c(F)cc1F [Example 170]
- IC50 [1]: 110 nM

SMILES: COc1ccc(CCC(=O)O)cc1-c1cnc(N2CCC2)nc1CN1C(=O)O[C@H](c2cccc(F)c2)[C@@H]1C [Example 277]
- IC50 [1]: 35 nM

SMILES: COc1cc(F)c(C(C)C)cc1-c1ccc(-n2cccn2)nc1CN1C(=O)O[C@H](c2cc(C(F)(F)F)cc(C(F)(F)F)c2)[C@@H]1C [Example 299, (4S,5R)-5-[3,5-bis(trifluoromethyl)phenyl]-3-({3-[4-fluoro-2-methoxy-5-(propan-2-yl)phenyl]-6-(1H-pyrazol-1-yl)pyridin-2-yl}methyl)-4-methyl-1,3-oxazolidin-2-one]
- IC50 (CETP): 55.8 nM

SMILES: CCOC(=O)N1c2ccc(C(F)(F)F)cc2[C@@H](N(Cc2cc(C(F)(F)F)cc(C(F)(F)F)c2)C(=O)OC)C[C@H]1CC [torcetrapib, Torcetrapib]
- incidence of mortality [2]: higher incidence of mortality
